{"source": "paper PMC6268373", "about": "“Systematic Study of the Physicochemical Properties of a Homologous Series of Aminobisphosphonates” (Molecules, 2012)", "key": {"[1]": {"assay": "Protonation constants by (traditional) potentiometric titration (TPT), SUPERQUAD", "conditions": "0.1 M NaNO3, 25 °C; for pKa: log K, TPT", "from_the_text": "Results were obtained from […] as overall stability constants (log β values); following the chosen zero level H2L^2−. This zero level H2L^2− was chosen in the calculations to avoid any accumulation of errors of protonation constants at different pH ranges. The log β results for reactions (4) and (5) obtained in the final refinements are listed in Table S3 (see Supporting Information) with error limits (±3σ), number of points/number of titrations and χ^2/Σ statistics.\nThe details of the experiments using (traditional) potentiometric titration are presented in the Supporting Information. The results of the determination by Sirius instrument are shown in the Supporting Information. Potentiometric titrations of the compounds were performed with the PCA200 apparatus (Sirius Analytical Instruments Ltd, Forest Row, East Sussex, UK).\nTable S2. The effect of pH on aqueous solubility (mg/L) of aminoalkylbis(phosphonates) […]\nSolubility (g/L) of Compound\nDetermination of the Protonation Constants Using (traditional) Potentiometric Titration. Reagents:\nAqueous 0.1 M NaOH was prepared from Titrisol ampoules (Merck) and 0.1 M HNO3 from Convol ampoules (BDH). The background solution was prepared by dissolving NaNO3 in deionised water.\nThe NaNO3 and NaCl used in reference electrode were p.a. grade (Merck). The water used in the dilutions and titration solutions was purified with Milli-RO and Milli-Q water purification systems […]\nPotentiometric measurements: The protonation equilibria was studied in aqueous 0.1 M NaNO3 at 25.0 ± 0.1 °C through a series of potentiometric EMF titrations carried out with a Schott-Geräte GmbH […]\nThe cell arrangement for the measurement of the hydrogen ion concentration [H+] was as follows:\n−RE […] equilibrium solution […] GE+ (1) where GE denotes a glass electrode (Schott N2680), and RE is Hg, Hg2Cl2 […] 0.01 M NaCl, 0.09 M NaNO3. Expression (2) is valid assuming that the activity coefficients are constant.\nThe cell parameter E0 and the liquid junction coefficient jH, valid in acidic solutions, were determined for each titration by adding a known amount of HNO3 to the background electrolyte. The value of the liquid junction coefficient jOH, valid in basic solutions, was determined periodically. Only stable EMF readings were used in the calculations.\nDuring the measurements of the protonation equilibria, aqueous 0.1 M NaOH or 0.1 M HNO3 was […]\nFour to eight independent titrations were carried out for each ligand. The number of data points used in […]\nData treatment: Protonation and deprotonation of the ligands were controlled by addition of HNO3 or NaOH. The curves of ZH versus pH were drawn to visualize the experimental data sets. ZH describes the average number of H+ ions added or liberated per mole of ligand and is given by the relationship […]\nwhere CH denotes the total concentration of protons calculated over the zero level H2L2−.\nIn the evaluation of the equilibrium constants, the following two-component equilibria were utilized:\nH2L2− ⇋ H2-xL(2+x)– + xH+ , x = 1–2; β–x (4) xH+ + H2L2− ⇋ Hx+2Lx–2, x = 1–3; βx (5)\nMathematical analysis of the systems involves a search for protonation models and equilibrium constants that best describe the experimental data. The calculations were carried out with the computer […]\n1200). The sample standard deviation Σ and the χ2 statistics used as criteria in the selection of the models were those provided by the program. As a means to improve the confidence level, the error limits for log β values determined in this study are reported as three times the standard deviation estimated by the program.\nFigure S2. ZH vs. pH for protonation of compounds (a) 1; (b) 2; (c) 3; (d) 4 and (e) 5."}, "[2]": {"assay": "Thermal analysis (TG/DTA and TGA 7)", "format": "physicochemical", "conditions": "for Td: 5 °C/min; for Temp. range of 1st cleavage: lower limit taken at 0.5 wt-%", "method": "Thermal decomposition paths with evaluation of crystal water content were obtained parallel with two instruments; Perkin Elmer STA 6000 thermogravimetric TG/DTA and Perkin Elmer TGA 7 analyzers (Perkin Elmer, Massachusetts, USA). Measurements were carried out in an open platinum crucible (the higher 5 mm crucible was used in TG/DTA and a shallower 2 mm crucible in TGA 7) under air atmosphere (flow rate of 45 mL/min) with a heating rate of 5 °C/min over the temperature range of 25−700 °C. The temperature calibration of STA 6000 was made using melting points of indium (156.60 °C) and zinc (419.5 °C) standards. For TGA 7 magnetic Curie-point calibration technique (Alumel, Ni, Perkalloy, Fe) was used. The weight balance of both instruments was calibrated by measuring a standard weight of 50 mg at room temperature. The sample weights used in the measurements were about 4–8 mg, and for each bisphosphonate, it was attempted to keep the same on both instruments. The melting/dehydration/decomposition behavior of the compounds was also visually monitored using a Stuart Scientific SMP3 melting point apparatus."}, "[3]": {"conditions": "cited from earlier work; for logK, pKa3: H2L2− + H+ ⇋ H3L−; for logK, pKa2: H3L− + H+ ⇋ H4L; for logK, pKa4: HL3− + H+ ⇋ H2L2−"}, "[4]": {"assay": "Effect of pH on aqueous solubility", "conditions": "21 °C, thermodynamic from solid", "description": "(§1) A Jasco V-530 UV/Vis spectrophotometer was used for phosphorus determination at 880 nm wavelength. Filtered liquid samples were diluted to the appropriate volume with Milli-Q water and were digested with the persulphate oxidation technique in acidic medium at elevated temperature to convert aminobisphosponates to orthophosphate. In an acidic medium, ammonium molybdate and antimony potassium tartrate react with orthophosphate to form a phosphomolybdic acid that is reduced to intensively colored molybdenum blue by ascorbic acid [30].\n(§2) The mixture containing an excess of the studied compound was first agitated for predetermined time with magnetic stirrer and before taking the sample mixture was allowed to stand for 24 h without stirring. The sample (about 5 mL) was taken from liquid above the solids, pH was measured and the sample was filtered through 0.2 µm membrane filter to remove any possible insoluble particles. The phosphorus concentration in the filtered sample solution was determined by using the spectrophotometric method described above."}, "[5]": {"assay": "Effect of temperature on aqueous solubility", "conditions": "water, thermodynamic from solid", "description": "as §1, §2"}, "[6]": {"assay": "pKa determination with Sirius instrument (PCA200)"}, "[7]": {"assay": "Aqueous solubility of saturated solution at 21 °C (phosphorus determination by molybdenum blue spectrophotometry)", "conditions": "21 °C", "description": "as §1, §2"}, "[8]": {"conditions": "overall protonation, zero level H2L2−"}}, "note": "Read-outs that look alike come from different tables or passages of the source."}
{"smiles": "NCCCCCC(O)(P(=O)(O)O)P(=O)(O)O", "note": "[Compound 4, (6-Amino-1-hydroxyhexylidene)bisphosphonic acid, reference compound]", "values": [{"measurement": "pKa", "setting": "[1]; pKa1 (H4L + H+ ⇋ H5L+), approximate values", "result": 0.94}, {"measurement": "pKa", "setting": "[1]; pKa2 (H3L− + H+ ⇋ H4L)", "result": 2.38}, {"measurement": "pKa", "setting": "[1]; pKa3 (H2L2− + H+ ⇋ H3L−)", "result": 6.62}, {"measurement": "pKa", "setting": "[1]; pKa4 (HL3− + H+ ⇋ H2L2−)", "result": 10.9}, {"measurement": "pKa", "setting": "[1]; pKa5 (L4− + H+ ⇋ HL3−)", "result": 11.9}, {"measurement": "logβx ± 3σ, x = 1 (H3L−)", "setting": "[1]; [8]", "result": "6.62 ± 0.02"}, {"measurement": "logβx ± 3σ, x = 2 (H4L)", "setting": "[1]; [8]", "result": "9.00 ± 0.03"}, {"measurement": "logβx ± 3σ, x = 3 (H5L+)", "setting": "[1]; [8]", "result": "9.94 ± 0.12"}, {"measurement": "logβx ± 3σ, x = −1 (HL3−)", "setting": "[1]; [8]", "result": "−10.86 ± 0.02"}, {"measurement": "logβx ± 3σ, x = −2 (L4−)", "setting": "[1]; [8]", "result": "−22.80 ± 0.02"}, {"measurement": "Onset temperature of first cleavage", "setting": "[2]; TG/DTA, higher crucible", "result": 208, "unit": "°C"}, {"measurement": "Td", "setting": "[2]; TG/DTA, higher crucible, air", "result": 208, "unit": "°C"}, {"measurement": "Temp. range of 1st cleavage", "setting": "[2]; TG/DTA, higher crucible", "result": "196–260 °C"}, {"measurement": "Onset temperature of first cleavage", "setting": "[2]; TGA 7, shallow crucible", "result": 215, "unit": "°C"}, {"measurement": "Td", "setting": "[2]; TGA 7, shallow crucible, air", "result": 215, "unit": "°C"}, {"measurement": "Temp. range of 1st cleavage", "setting": "[2]; TGA 7, shallow crucible", "result": "183–251 °C"}, {"measurement": "Td (decomposition onset)", "setting": "[2]; average from both instruments, air, heating rate 5 °C/min", "result": 212, "unit": "°C"}, {"measurement": "logK, pKa3", "setting": "[3]; ref 4", "result": 6.50}, {"measurement": "logK, pKa3", "setting": "[3]; ref 13", "result": 5.49}, {"measurement": "logK, pKa2", "setting": "[3]; ref 4", "result": 2.45}, {"measurement": "logK, pKa2", "setting": "[3]; ref 13", "result": 2.90}, {"measurement": "logK, pKa4", "setting": "[3]; ref 4", "result": 10.66}, {"measurement": "logK, pKa4", "setting": "[3]; ref 13", "result": 8.63}, {"measurement": "logK, pKa5", "setting": "[3]; L4− + H+ ⇋ HL3−, ref 13", "result": 10.9}, {"measurement": "solubility at 30 min", "setting": "[4]; pH 0, aqueous buffer", "result": 6340, "unit": "µg/mL"}, {"measurement": "solubility at 30 min", "setting": "[4]; pH 1, aqueous buffer", "result": 3840, "unit": "µg/mL"}, {"measurement": "solubility at 30 min", "setting": "[4]; pH 2, aqueous buffer", "result": 2900, "unit": "µg/mL"}, {"measurement": "solubility at 30 min", "setting": "[4]; pH 3, aqueous buffer", "result": 2970, "unit": "µg/mL"}, {"measurement": "solubility at 30 min", "setting": "[4]; pH 4, aqueous buffer", "result": 3090, "unit": "µg/mL"}, {"measurement": "solubility at 30 min", "setting": "[4]; pH 5, aqueous buffer", "result": 3220, "unit": "µg/mL"}, {"measurement": "solubility at 30 min", "setting": "[4]; pH 6, aqueous buffer", "result": 3390, "unit": "µg/mL"}, {"measurement": "solubility at 30 min", "setting": "[4]; pH 7, aqueous buffer", "result": 3420, "unit": "µg/mL"}, {"measurement": "solubility at 30 min", "setting": "[4]; pH 8, aqueous buffer", "result": 3530, "unit": "µg/mL"}, {"measurement": "solubility at 30 min", "setting": "[4]; pH 9, aqueous buffer", "result": 3080, "unit": "µg/mL"}, {"measurement": "solubility at 30 min", "setting": "[4]; pH 10, aqueous buffer", "result": 3180, "unit": "µg/mL"}, {"measurement": "solubility at 30 min", "setting": "[4]; pH 11, aqueous buffer", "result": 3380, "unit": "µg/mL"}, {"measurement": "solubility at 24 h", "setting": "[5]; 4 °C", "result": 4470, "unit": "µg/mL"}, {"measurement": "solubility at 24 h", "setting": "[5]; 7.6 °C", "result": 4600, "unit": "µg/mL"}, {"measurement": "solubility at 24 h", "setting": "[5]; 21 °C", "result": 5170, "unit": "µg/mL"}, {"measurement": "solubility at 24 h", "setting": "[5]; 30 °C", "result": 5770, "unit": "µg/mL"}, {"measurement": "solubility at 24 h", "setting": "[5]; 40 °C", "result": 7620, "unit": "µg/mL"}, {"measurement": "solubility at 24 h", "setting": "[5]; 50 °C", "result": 9550, "unit": "µg/mL"}, {"measurement": "pKa 2 (Sirius)", "setting": "[6]", "result": 2.99}, {"measurement": "pKa 3 (Sirius)", "setting": "[6]", "result": 6.36}, {"measurement": "pKa 4 (Sirius)", "setting": "[6]", "result": 6.82}, {"measurement": "solubility at 30 min", "setting": "[7]; water, thermodynamic from solid", "result": 3420, "unit": "µg/mL"}, {"measurement": "pH of saturated solution", "setting": "[7]; saturated aqueous solution, agitation time 30 min", "result": 2.26}]}
